Values quoted from earlier work as cited in patent publication US8690839B2, “Devices for delivering a medicament and connector for same” (priority 2008, dated 2014).

How the values were obtained:
[1] = for onset (in words): in vivo
[2] = in vivo

Structure (SMILES)	onset (in words) [1]	toxic dose [2]	onset time ([1]; topical use)
CCCN1CCCC[C@H]1C(=O)Nc1c(C)cccc1C [Ropivacaine, ropivacaine]	slow onset	about 175 mg	–
CCCCNc1ccc(C(=O)OCCN(C)C)cc1 [Tetracaine, tetracaine]	fast onset	–	–
CCOC(=O)c1ccc(N)cc1 [Benzocaine, benzocaine]	–	> 200 mg	about 30 seconds
